# From ChEMBL document CHEMBL1201862, “PubChem BioAssay data set” (2004)
#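 These data come from cells grown in 96-well plates and exposed to compound for 48 hours at five concentrations. At the GI50, growth is halved.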 The source made the active and inactive calls. Cut-off read from the data, not from the text of the source: active = GI50 up to about 1.1 µM and inactive = higher.
# How the values were obtained:
# Assay in all cases: inhibition of tumour cell growth, NCI panel, 48 h
# SK-MEL-2 = tested on: SK-MEL-2
# M14 = tested on: M14
# LOX IMVI = tested on: LOX IMVI
# HOP-62 = tested on: HOP-62
# Malme-3M = tested on: Malme-3M
# NCI-H23 = tested on: NCI-H23
# HCT-116 = tested on: HCT-116
# DU-145 = tested on: DU-145
# BT-549 = tested on: BT-549
# RXF 393 = tested on: RXF 393
# T47D = tested on: T47D
# Hs-578T = tested on: Hs-578T
# UACC-62 = tested on: UACC-62
# NCI-H226 = tested on: NCI-H226
# SNB-75 = tested on: SNB-75
# RPMI-8226 = tested on: RPMI-8226
Compound,GI50 (SK-MEL-2),GI50 (M14),GI50 (LOX IMVI),GI50 (HOP-62),GI50 (Malme-3M),GI50 (NCI-H23),GI50 (HCT-116),GI50 (DU-145),GI50 (BT-549),GI50 (RXF 393),GI50 (T47D),GI50 (Hs-578T),GI50 (UACC-62),GI50 (NCI-H226),GI50 (SNB-75),GI50 (RPMI-8226)
Cc1cc(O)c(C(C)C)cc1NC(=O)Nc1cccc2ccccc12,15.3 µM (inactive),18 µM (inactive),19.8 µM (inactive),16.4 µM (inactive),19.5 µM (inactive),19.3 µM (inactive),15.6 µM (inactive),15 µM (inactive),17.2 µM (inactive),14.2 µM (inactive),13.2 µM (inactive),13.4 µM (inactive),13 µM (inactive),19.5 µM (inactive),–,–
CC(C)C(=O)C(C)(C)CCc1ccccn1,> 100 µM (inactive),> 100 µM (inactive),> 100 µM (inactive),> 100 µM (inactive),> 100 µM (inactive),> 100 µM (inactive),> 100 µM (inactive),> 100 µM (inactive),> 100 µM (inactive),> 100 µM (inactive),> 100 µM (inactive),> 100 µM (inactive),> 100 µM (inactive),> 100 µM (inactive),> 100 µM (inactive),> 100 µM (inactive)
C=C1CC2(CC(c3ccccc3Cl)OC(c3ccccc3Cl)C2)OC1=O (stereo not given),3.43 µM (inactive),1.71 µM (inactive),1.38 µM (inactive),8.05 µM (inactive),3.57 µM (inactive),3.83 µM (inactive),1.76 µM (inactive),6.87 µM (inactive),2.02 µM (inactive),2.12 µM (inactive),1.68 µM (inactive),1.88 µM (inactive),1.94 µM (inactive),8.69 µM (inactive),3.17 µM (inactive),0.752 µM (active)
COc1cc2c(cc1OC)C(=O)N(c1ccc(OCCN3CCCC3)cc1)C2=O,> 100 µM (inactive),> 100 µM (inactive),> 100 µM (inactive),> 100 µM (inactive),20.8 µM (inactive),> 100 µM (inactive),> 100 µM (inactive),> 100 µM (inactive),> 100 µM (inactive),> 100 µM (inactive),> 100 µM (inactive),> 100 µM (inactive),> 100 µM (inactive),> 100 µM (inactive),–,> 100 µM (inactive)
NNC(=S)N1CCN(C(=S)NN)CC1,> 100 µM (inactive),13.7 µM (inactive),58.1 µM (inactive),> 100 µM (inactive),> 100 µM (inactive),> 100 µM (inactive),> 100 µM (inactive),> 100 µM (inactive),> 100 µM (inactive),–,> 100 µM (inactive),> 100 µM (inactive),> 100 µM (inactive),–,> 100 µM (inactive),> 100 µM (inactive)
O=C(OCc1ccccc1CN1CCOCC1)c1cccc(Br)c1,22.3 µM (inactive),36.9 µM (inactive),31.3 µM (inactive),53.2 µM (inactive),21.7 µM (inactive),27.9 µM (inactive),32.9 µM (inactive),71 µM (inactive),52.6 µM (inactive),78.7 µM (inactive),18.7 µM (inactive),29.9 µM (inactive),33.6 µM (inactive),44.8 µM (inactive),31.2 µM (inactive),–
CCCCCCCCCCCCc1ccsc1-c1ccc(-c2ccc(-c3sc(-c4cc(CCCCCCCCCCCC)c(-c5ccc(-c6ccc(-c7sccc7CCCCCCCCCCCC)s6)s5)s4)cc3CCCCCCCCCCCC)s2)s1,> 100 µM (inactive),> 100 µM (inactive),–,> 100 µM (inactive),–,> 100 µM (inactive),> 100 µM (inactive),> 100 µM (inactive),> 100 µM (inactive),83.4 µM (inactive),> 100 µM (inactive),> 100 µM (inactive),> 100 µM (inactive),> 100 µM (inactive),> 100 µM (inactive),> 100 µM (inactive)
Nc1ccccc1N/C(=C\C(=O)C(Cl)(Cl)Cl)c1ccccc1,14.1 µM (inactive),20.1 µM (inactive),19.5 µM (inactive),23.6 µM (inactive),16.8 µM (inactive),30.3 µM (inactive),16.1 µM (inactive),38.8 µM (inactive),25.7 µM (inactive),19.1 µM (inactive),20.7 µM (inactive),29.6 µM (inactive),17.5 µM (inactive),24.2 µM (inactive),37.8 µM (inactive),23.1 µM (inactive)
c1ccc2c(c1)CCN1CCc3ccccc3C1C2 (stereo not given),51.2 µM (inactive),23.1 µM (inactive),35.1 µM (inactive),56.2 µM (inactive),> 100 µM (inactive),59.7 µM (inactive),17.5 µM (inactive),> 100 µM (inactive),80.7 µM (inactive),–,> 100 µM (inactive),68.5 µM (inactive),29.7 µM (inactive),23.6 µM (inactive),36.4 µM (inactive),43 µM (inactive)
CCCCCCCCCCCCCCCCCC(=O)Nc1ccn(C2CCC(COP(=O)(O)O)O2)c(=O)n1 (stereo not given),> 100 µM (inactive),> 100 µM (inactive),> 100 µM (inactive),> 100 µM (inactive),–,> 100 µM (inactive),> 100 µM (inactive),> 100 µM (inactive),> 100 µM (inactive),> 100 µM (inactive),> 100 µM (inactive),> 100 µM (inactive),> 100 µM (inactive),> 100 µM (inactive),> 100 µM (inactive),> 100 µM (inactive)
C=CCn1c(-c2ccc(-c3cs/c(=N\N=O)n3CC=C)cc2)cs/c1=N\N=O,> 100 µM (inactive),> 100 µM (inactive),> 100 µM (inactive),64.3 µM (inactive),> 100 µM (inactive),> 100 µM (inactive),79.1 µM (inactive),> 100 µM (inactive),> 100 µM (inactive),19.1 µM (inactive),> 100 µM (inactive),45.9 µM (inactive),> 100 µM (inactive),> 100 µM (inactive),20.9 µM (inactive),–
N=c1oc2ccc3ccccc3c2cc1-c1nc(O)c2ccccc2n1,14.4 µM (inactive),25.9 µM (inactive),38.5 µM (inactive),15.8 µM (inactive),23.4 µM (inactive),–,24.4 µM (inactive),36.4 µM (inactive),15.1 µM (inactive),10.6 µM (inactive),30.7 µM (inactive),20.5 µM (inactive),12.8 µM (inactive),37.1 µM (inactive),2.44 µM (inactive),42.6 µM (inactive)
O=C1/C(=C\c2ccc([N+](=O)[O-])cc2)N(S(=O)(=O)c2ccccc2)c2ncccc21,–,17.4 µM (inactive),19.5 µM (inactive),18.7 µM (inactive),18.2 µM (inactive),13.7 µM (inactive),18.2 µM (inactive),27.5 µM (inactive),18.3 µM (inactive),16.6 µM (inactive),13.4 µM (inactive),31.2 µM (inactive),9.23 µM (inactive),22.9 µM (inactive),14.5 µM (inactive),5.43 µM (inactive)
